The text below walks through data of patent US7288542B2, “Non-nucleoside reverse transcriptase inhibitors” (Roche Palo Alto LLC, priority 2004, dated 2007).

As a reminder, the melting point is the temperature of the solid-liquid transition.

Data set [1] is described as follows: Oral pharmacokinetics in rats: plasma concentration of active nnRTI after gavage of prodrug or parent (Example 8). Type of data set: in vivo. The following applies: parent compound dosed p.o. at 50 mg/kg; for Cmax: rat, plasma, po, read-out: Cmax (peak concentration of active nnRTI) (converted). As for the experimental part: dose equivalent to (0.127 mmol) was administered orally by gavage. A blood sample (0.3 mL) was collected from the […] at 0.5, 1, 2, 3, 4, 6 and 8 hours after via the jugular cannula. A sample of at least 0.3 mL of blood was withdrawn from the untreated animals 3 h after dosing. After 24 h from dosing, as much blood as possible was collected from all treated and control animals. Potassium oxalate/NaF was added to the samples which were stored on ice during sampling procedure. The samples were spun in a refrigerated centrifuge at […] as soon as possible and the plasma samples were stored −20° C. immediately after centrifugation amd later transferred to a −80° C. freezer until analysis. The concentration of test compound was determined by hplc.

Where a name gives a salt, the structure may show the parent alone.

In turn, `Cc1cc(Cc2ccc(Cl)c(Oc3cc(C#N)cc(C#N)c3)c2F)nn(COC(=O)OCCN(C)C)c1=O` (as salt: HCl) [Compound I-18, Carbonic acid 3-[4-chloro-3-(3,5-dicyano-phenoxy)-2-fluoro-benzyl]-5-methyl-6-oxo-6H-pyridazin-1-ylmethyl ester 2-dimethylamino-ethyl ester] displayed a melting point of 75 to 90 °C.

Consider `Cc1cc(Cc2ccc(Cl)c(Oc3cc(C#N)cc(C#N)c3)c2F)nn(COC(=O)[C@@H](N)C(C)C)c1=O` (as salt: hydrochloride) [Compound I-5, (S)-1-{3-[4-Chloro-3-(3,5-dicyano-phenoxy)-2-fluoro-benzyl]-5-methyl-6-oxo-6H-pyridazin-1-ylmethoxycarbonyl}-2-methyl-propyl-ammonium; chloride], for which the melting point lay within 176.7 to 178.3 °C. On the same count and under the same terms, the figure for `Cc1cc(Cc2ccc(Cl)c(Oc3cc(C#N)cc(C#N)c3)c2F)nn(COP(=O)(O)O)c1=O` (as salt: sodium) (hydrate or solvate) [Compound I-23, Phosphoric acid mono-{3-[4-chloro-3-(3,5-dicyano-phenoxy)-2-fluoro-benzyl]-5-methyl-6-oxo-6H-pyridazin-1-ylmethyl}ester disodium salt] is 193.7 to 197.2 °C. `Cc1cc(Cc2ccc(Cl)c(Oc3cc(C#N)cc(C#N)c3)c2F)n[nH]c1=O` [Compound 10, 5-[6-chloro-2-fluoro-3-(5-methyl-6-oxo-1,6-dihydro-pyridazin-3-ylmethyl)-phenoxy]-isophthalonitrile]: in data set [1], the “AUC (total amount of active nnRTI absorbed)” value came out at 8100 ng·h/mL and the Cmax is 600 ng/mL. The like results for `Cc1cc(Cc2ccc(Cl)c(Oc3cc(Cl)cc(C#N)c3)c2F)n[nH]c1=O` [Compound 11, 3-chloro-5-[6-chloro-2-fluoro-3-(5-methyl-6-oxo-1,6-dihydro-pyridazin-3-ylmethyl)-phenoxy]-benzonitrile] were, in that order, 30000 ng·h/mL and 2300 ng/mL. Take `Cc1cc(Cc2ccc(Cl)c(Oc3cc(C#N)cc(C#N)c3)c2F)nn(CO)c1=O` [Compound I-1, 5-[6-Chloro-2-fluoro-3-(1-hydroxymethyl-5-methyl-6-oxo-1,6-dihydro-pyridazin-3-ylmethyl)-phenoxyl]-isophthalonitrile]: the melting point was in the range of 172 to 179 °C.

`Cc1cc(Cc2ccc(Cl)c(Oc3cc(C#N)cc(C#N)c3)c2F)nn(COC(=O)CCC(=O)O)c1=O` [Compound I-8, Succinic acid mono-{3-[4-chloro-3-(3,5-dicyano-phenoxy)-2-fluoro-benzyl]-5-methyl-6-oxo-6H-pyridazin-1-ylmethyl}ester] showed a melting point of 167 to 171.5 °C. The molecule `Cc1cc(Cc2ccc(Cl)c(Oc3cc(C#N)cc(C(F)F)c3)c2F)nn(CO)c1=O` [Compound I-27] registered a melting point of 113.9 to 117.3 °C.

The molecule `Cc1cc(Cc2ccc(Cl)c(Oc3cc(C#N)cc(C(F)F)c3)c2F)nn(COC(=O)CCC(=O)O)c1=O` [Compound I-28, Succinic acid mono-{3-[4-chloro-3-(3-cyano-5-difluoromethyl-phenoxy)-2-fluoro-benzyl]-5-methyl-6-oxo-6H-pyridazin-1-ylmethyl}ester] gave a melting point of 154.3 to 156.9 °C. In the case of `N#Cc1cc(F)cc(Oc2c(Cl)ccc(Cc3ccc(=O)n(CO)n3)c2F)c1` [Compound I-29], the melting point lay in the range of 100.5 to 103.8 °C. Still for that read-out and setting: as for `N#Cc1cc(F)cc(Oc2c(Cl)ccc(Cc3ccc(=O)n(COC(=O)CCC(=O)O)n3)c2F)c1` [Compound I-30, Succinic acid mono-{3-[4-chloro-3-(3-cyano-5-fluoro-phenoxy)-2-fluoro-benzyl]-6-oxo-6H-pyridazin-1-ylmethyl}ester], the figure is 133.9 to 137 °C.
